Assay results from patent publication US20240059698A1 (Accutar Biotechnology Inc., priority 2022, published 2024).

What was measured:
[1] = test system: HCC827-SVD cells (human EGFR exon 20 insertion mutant D770_N771insSVD); assay: Cell growth inhibition (CellTiter-Glo), HCC827-SVD; assay type: cell-based; conditions: 72 h, 3 days
Description: (§1) Generation of HCC827-SVD, HCC827-ASV, and HCC827-YVMA cell lines. The HCC827-SVD cell line was generated by first transducing HCC827 cells (ATCC) with lentiviral particles expressing codon-optimized human EGFR exon 20 insertion mutant D770_N771insSVD, and then selecting under 5 µg/mL puromycin treatment for a week. The resulting cells were further transduced with lentiviral particles carrying EGFR sgRNA and CAS9 to knockout the endogenous alleles of EGER and then selected under 500 µg/mL hygromycin B treatment for two weeks. The limiting dilution approach was used to subsequently generate the single clone of the HCC827-SVD stable cell line. Endogenous EGFR knockout was confirmed by Sanger sequencing of cell genomic DNA, and expression of exogenous mutant EGFR was verified by Western blot analysis.
(§2) 2. Cell Growth Inhibition for HCC827, HCC827-SVD, HCC827-ASV, HCC827-YVMA, and A431.
(§3) HCC827(ATCC), HCC827-SVD, HCC827-ASV, and HCC827-YVMA cells were seeded in 96-well plates at 5000 cells/well in 90 μL of RPMI growth medium containing 10% FBS and 1% Penicillin Streptomycin. A431 (ATCC) cells were seeded in 96-well plates at 5000 cells/well in 90 μL of DMEM growth medium containing 10% FBS and 1% Penicillin Streptomycin. Cells were incubated at 37° C. overnight and then administered with 10 μL 10× test compounds prepared in the growth medium at various concentrations. After administration of the compounds, cells were incubated at 37° C. for 3 days. Before the CellTiter-Glo assay, the plates were equilibrated at room temperature for approximately 30 minutes. 100 ul of CellTiter-Glo reagent (Promega) was added to each well. The plates were then incubated at room temperature for 10 minutes and luminescence was recorded by the EnSight® multimode plate reader (PerkinElmer). Table 7 listed selected compounds in cellular growth assay.

[2] = test system: HCC827-YVMA cells (human ERBB2 exon20 insertion mutant A775_G776ins YVMA); assay: Cell growth inhibition (CellTiter-Glo), HCC827-YVMA; assay type: cell-based; conditions: 72 h, HCC827-YVMA cells, 3 days, CellTiter-Glo, read-out: Cell growth inhibition, GI50 (nM) HCC827-YVMA
Description: as §1
HCC827-ASV and HCC827-YVMA cell lines were generated in a similar approach as HCC827-SVD, except that HCC827 cells (ATCC) were first transduced with lentiviral particles expressing codon-optimized human EGFR exon 20 insertion mutant V769_D770insASV and human ERBB2 exon20 insertion mutant A775_G776ins YVMA, respectively.
as §2, §3

| Compound | GI50 [1] | GI50 [2] |
| --- | --- | --- |
| C=CC(=O)N1CCC(c2c[nH]c3ncnc(Nc4ccc(OCc5ncccc5Cl)c(Cl)c4)c23)CC1 [Compound 35, 1-(4-(4-((3-chloro-4-((3-chloropyridin-2-yl)methoxy)phenyl)amino)-7H-pyrrolo[2,3-d]pyrimidin-5-yl)piperidin-1-yl)prop-2-en-1-one] | < 50 nM | < 50 nM |
| C=CC(=O)N1CCC(c2c[nH]c3ncnc(Nc4ccc(OCc5cccc(F)n5)c(Cl)c4)c23)CC1 [Compound 36, 1-(4-(4-((3-chloro-4-((6-fluoropyridin-2-yl)methoxy)phenyl)amino)-7H-pyrrolo[2,3-d]pyrimidin-5-yl)piperidin-1-yl)prop-2-en-1-one] | < 50 nM | < 50 nM |
| C=CC(=O)N1CCC(c2c[nH]c3ncnc(Nc4ccc(OCc5ncccc5F)c(Cl)c4)c23)CC1 [Compound 37, 1-(4-(4-((3-chloro-4-((3-fluoropyridin-2-yl)methoxy)phenyl)amino)-7H-pyrrolo[2,3-d]pyrimidin-5-yl)piperidin-1-yl)prop-2-en-1-one] | < 50 nM | < 50 nM |
| C=CC(=O)N1CCC(c2c[nH]c3ncnc(Nc4ccc(Oc5ccnc(NC(=O)C6CCCC6)c5)c(Cl)c4)c23)CC1 [Compound 38, N-[4-[2-chloro-4-[[5-(1-prop-2-enoyl-4-piperidyl)-7H-pyrrolo[2,3-d]pyrimidin-4-yl]amino]phenoxy]-2-pyridyl]cyclopentanecarboxamide] | 50 to 200 nM | 50 to 200 nM |
| C=CC(=O)N1CCC(c2c[nH]c3ncnc(Nc4ccc(OCc5ccccn5)c(Br)c4)c23)CC1 [Compound 39, 1-(4-(4-((3-bromo-4-(pyridin-2-ylmethoxy)phenyl)amino)-7H-pyrrolo[2,3-d]pyrimidin-5-yl)piperidin-1-yl)prop-2-en-1-one] | < 50 nM | < 50 nM |
| C=CC(=O)N1CCC(c2c[nH]c3ncnc(Nc4ccc(Oc5ccnc(Nc6ccccn6)c5)c(Cl)c4F)c23)CC1 [Compound 40, 1-(4-(4-((3-chloro-2-fluoro-4-((2-(pyridin-2-ylamino)pyridin-4-yl)oxy)phenyl)amino)-7H-pyrrolo[2,3-d]pyrimidin-5-yl)piperidin-1-yl)prop-2-en-1-one] | < 50 nM | < 50 nM |
| C=CC(=O)N1CCC(c2c[nH]c3ncnc(Nc4ccc(Oc5ccn(-c6ccc7cc[nH]c7n6)n5)cc4F)c23)CC1 [Compound 41, 1-(4-(4-((4-((1-(1H-pyrrolo[2,3-b]pyridin-6-yl)-1H-pyrazol-3-yl)oxy)-2-fluorophenyl)amino)-7H-pyrrolo[2,3-d]pyrimidin-5-yl)piperidin-1-yl)prop-2-en-1-one] | 50 to 200 nM | 200 to 1000 nM |
| C=CC(=O)N1CCC(c2c[nH]c3ncnc(Nc4ccc(Oc5ccnc(NCc6ccccn6)c5)cc4F)c23)CC1 [Compound 42, 1-(4-(4-((2-fluoro-4-((2-((pyridin-2-ylmethyl)amino)pyridin-4-yl)oxy)phenyl)amino)-7H-pyrrolo[2,3-d]pyrimidin-5-yl)piperidin-1-yl)prop-2-en-1-one] | 200 to 1000 nM | 200 to 1000 nM |
| C=CC(=O)N1CCC(c2c[nH]c3ncnc(Nc4ccc(Oc5ccnc(N6CCC(C(F)(F)F)C6)c5)c(Cl)c4)c23)CC1 (stereo not shown) [Compound 43, 1-[4-[4-[3-chloro-4-[[2-[3-(trifluoromethyl)pyrrolidin-1-yl]-4-pyridyl]oxy]anilino]-7H-pyrrolo[2,3-d]pyrimidin-5-yl]-1-piperidyl]prop-2-en-1-one] | 50 to 200 nM | 50 to 200 nM |
| C=CC(=O)N1CCC(c2c[nH]c3ncnc(Nc4ccc(Oc5ccnc(Nc6ccccn6)n5)cc4F)c23)CC1 [Compound 44, 1-(4-(4-((2-fluoro-4-((2-(pyridin-2-ylamino)pyrimidin-4-yl)oxy)phenyl)amino)-7H-pyrrolo[2,3-d]pyrimidin-5-yl)piperidin-1-yl)prop-2-en-1-one] | 200 to 1000 nM | 200 to 1000 nM |
| C=CC(=O)N1CCC(c2c[nH]c3ncnc(Nc4ccc(Oc5ccnc(NCC(C)C)n5)cc4F)c23)CC1 [Compound 45, 1-(4-(4-((2-fluoro-4-((2-(isoButylamino)pyrimidin-4-yl)oxy)phenyl)amino)-7H-pyrrolo[2,3-d]pyrimidin-5-yl)piperidin-1-yl)prop-2-en-1-one] | 50 to 200 nM | 50 to 200 nM |
| C=CC(=O)N1CCC(c2c[nH]c3ncnc(Nc4ccc(Oc5ccnc6cc[nH]c56)c(Cl)c4)c23)CC1 [Compound 46, 1-(4-(4-((4-((1H-pyrrolo[3,2-b]pyridin-7-yl)oxy)-3-chlorophenyl)amino)-7H-pyrrolo[2,3-d]pyrimidin-5-yl)piperidin-1-yl)prop-2-en-1-one] | 50 to 200 nM | 50 to 200 nM |
| C=CC(=O)N1CCC(c2c[nH]c3ncnc(Nc4ccc(OCc5cnc(Cn6cncn6)nc5)c(Cl)c4)c23)CC1 [Compound 47, 1-(4-(4-((4-((2-((1H-1,2,4-triazol-1-yl)methyl)pyrimidin-5-yl)methoxy)-3-chlorophenyl)amino)-7H-pyrrolo[2,3-d]pyrimidin-5-yl)piperidin-1-yl)prop-2-en-1-one] | < 50 nM | 50 to 200 nM |
| C=CC(=O)N1CCC(c2c[nH]c3ncnc(Nc4ccc(Oc5ccnc(-c6ccn(C)n6)c5)c(Cl)c4)c23)CC1 [Compound 48, 1-(4-(4-((3-chloro-4-((2-(1-methyl-1H-pyrazol-3-yl)pyridin-4-yl)oxy)phenyl)amino)-7H-pyrrolo[2,3-d]pyrimidin-5-yl)piperidin-1-yl)prop-2-en-1-one] | 50 to 200 nM | 50 to 200 nM |
| C=CC(=O)N1CCC(c2c[nH]c3ncnc(Nc4ccc(Oc5ccnc(Nc6ccccn6)c5)c(Cl)c4)c23)CC1 [Compound 49, 1-(4-(4-((3-chloro-4-((2-(pyridin-2-ylamino)pyridin-4-yl)oxy)phenyl)amino)-7H-pyrrolo[2,3-d]pyrimidin-5-yl)piperidin-1-yl)prop-2-en-1-one] | 50 to 200 nM | < 50 nM |
| C=CC(=O)N1CCC(c2c[nH]c3ncnc(Nc4ccc(Oc5ccnc(N6CCC(C(F)(F)F)C6)n5)cc4F)c23)CC1 (stereo not shown) [Compound 50, 1-(4-(4-((2-fluoro-4-((2-(3-(trifluoromethyl)pyrrolidin-1-yl)pyrimidin-4-yl)oxy)phenyl)amino)-7H-pyrrolo[2,3-d]pyrimidin-5-yl)piperidin-1-yl)prop-2-en-1-one] | 200 to 1000 nM | 50 to 200 nM |
| C=CC(=O)N1CCC(c2c[nH]c3ncnc(Nc4ccc(Oc5ccnc(C6CCC6)c5)cc4F)c23)CC1 [Compound 51, 1-(4-(4-((4-((2-cycloButylpyridin-4-yl)oxy)-2-fluorophenyl)amino)-7H-pyrrolo[2,3-d]pyrimidin-5-yl)piperidin-1-yl)prop-2-en-1-one] | 200 to 1000 nM | 200 to 1000 nM |
| C=CC(=O)N1CCC(c2c[nH]c3ncnc(Nc4ccc(OCc5nncs5)c(Cl)c4)c23)CC1 [Compound 52, 1-(4-(4-((4-((1,3,4-thiadiazol-2-yl)methoxy)-3-chlorophenyl)amino)-7H-pyrrolo[2,3-d]pyrimidin-5-yl)piperidin-1-yl)prop-2-en-1-one] | < 50 nM | < 50 nM |
| C=CC(=O)N1CCC(c2c[nH]c3ncnc(Nc4ccc(Oc5ccnc(-c6cccc(C(F)(F)F)c6)c5)cc4F)c23)CC1 [Compound 53, 1-(4-(4-((2-fluoro-4-((2-(3-(trifluoromethyl)phenyl)pyridin-4-yl)oxy)phenyl)amino)-7H-pyrrolo[2,3-d]pyrimidin-5-yl)piperidin-1-yl)prop-2-en-1-one] | 200 to 1000 nM | 200 to 1000 nM |
| C=CC(=O)N1CCC(c2c[nH]c3ncnc(Nc4ccc(CN(C)c5cnccn5)c(Cl)c4)c23)CC1 [Compound 54, 1-(4-(4-((3-chloro-4-((methyl(pyrazin-2-yl)amino)methyl)phenyl)amino)-7H-pyrrolo[2,3-d]pyrimidin-5-yl)piperidin-1-yl)prop-2-en-1-one] | < 50 nM | < 50 nM |
| C=CC(=O)N1CCC(c2c[nH]c3ncnc(Nc4ccc(OCC(=O)NC(C)C)c(Cl)c4)c23)CC1 [Compound 55, 2-(4-((5-(1-acryloylpiperidin-4-yl)-7H-pyrrolo[2,3-d]pyrimidin-4-yl)amino)-2-chlorophenoxy)-N-isopropylacetamide] | < 50 nM | < 50 nM |
| C=CC(=O)N1CCC(c2c[nH]c3ncnc(Nc4ccc(Oc5cccc(C(F)(F)F)c5)c(Cl)c4)c23)CC1 [Compound 225, 1-[4-[4-[3-chloro-4-[3-(trifluoromethyl)phenoxy]anilino]-7H-pyrrolo[2,3-d]pyrimidin-5-yl]-1-piperidyl]prop-2-en-1-one] | – | < 50 nM |
